Experimental data from PubChem BioAssay AID2060483 (Molecular Pharmacology Branch, DTP, NCI, 2025).

System: K24384-001-R-PDC complex spheroids, viability
Assay: Anticancer human tumor K24384-001-R-PDC patient-derived pancreatic adenocarcinoma cell line growth inhibition [GQUAD]
Conditions: for IC50: curve of first compound; for viability, T/C: stronger effect = lower value
From the text: DNA G-quadruplex Stabilizer Agents in Combinations in Complex Spheroids
A high-throughput screen of multi-cell type tumor spheroids was designed to identify active combinations of DNA G-quadruplex stabilizer agents and targeted small molecules. Complex spheroids include a stromal component modeled by human endothelial cells (HUVEC) and fibroblasts modeled by human mesenchymal stem cells (MSCs). The concentration ranges selected for each drug and investigational agent were based upon clinically achievable concentrations if the clinical Cmax of the agent was known.
Compounds. The drugs and investigational agents: pidnarulex (CX-5461; NSC782164), APTO-253 (NSC789042), BRACO-19 (NSC847499), peposertib (NSC802822), ceralasertib (NSC780249), elimusertib (NSC800525), camonsertib (NSC841442), AZD-1390 (NSC803789), olaparib (NSC753686), talazoparib (NSC767125), ART-558 (NSC835418), sotorasib (NSC818433), MRTX-1133 (NSC836407), SN-38 (NSC673596), topotecan (NSC609699), etoposide (NSC141540), doxorubicin (NSC123127), gemcitabine (NSC613327), 5-fluorouracil (NSC19893), paclitaxel (NSC125973), vemurafenib (NSC761431), panobinostat (NSC761190), R-306465 (JNJ-16241199; NSC773264), adavosertib (NSC754352), TP-3654 (NSC805149), carboplatin (NSC241240), KSQ-4279 (NSC840948), and staurosporine (NSC755774) were obtained from the National Cancer Institute (NCI) Developmental Therapeutics Program Chemical Repository (34). The FDA-approved anticancer drug set is available from the NCI Developmental Therapeutics Program. […] The stock solutions were prepared in dimethyl sulfoxide (DMSO, Sigma-Aldrich, St. Louis, MO, cat. D2650) at 800-fold the tested concentration and stored at -70 degrees C prior to their use. All drugs and investigational agents were tested over a range starting from a high concentration at or near the clinical Cmax and decreasing in half-log increments. If the clinical Cmax for an agent had not been determined, the highest concentration tested was 10 microM.
2.3 Cell Culture. All cells were maintained in an incubator at 37 degrees C and 5% CO2 with 95% humidity. The PDC lines were cultured according to standard operating procedures established by the NCI PDMR. All PDCs were thawed and cultured in Matrigel-coated flasks prepared with a working solution of 1X Ham's F-12 nutrient mix, without supplementation (Invitrogen, cat. 11765054), 100 U/mL penicillin-streptomycin (Invitrogen, cat. 15140122), and 2.5% Matrigel (Corning Inc., cat. 354248) for the first three passages. The 857933-349-R-J2-PDC line was cultured in 6C/Colon 1B media, which includes advanced DMEM/F-12 (Thermo Fisher Scientific, cat. 12634028), 10 mM HEPES (Thermo Fisher Scientific, cat. 15630080), 1X GlutaMAX supplement (Thermo Fisher Scientific, cat. 35050061), 0.1 mg/mL primocin (InvivoGen, cat. ant-pm-2), 10% defined fetal bovine serum, heat inactivated (HyClone Laboratories Inc., cat. SH30070.03HI), 50% L-WRN conditioned media (ATCC, cat. CRL-3276), 1.25 mM N-Acetyl-L-cysteine (Sigma-Aldrich, cat. A9165), 10 mM nicotinamide (Sigma-Aldrich, cat. N0636), 1X B-27 supplement (Thermo Fisher Scientific, cat. 17504044), 1X N-2 supplement (Thermo Fisher Scientific, cat. 17502048), 10 microM Y-27632 dihydrochloride (Tocris Bioscience, cat. 1254), and 50 ng/mL human EGF recombinant protein (Thermo Fisher Scientific, cat. PHG0311). The 485176-168-R4-J1-PDC line was cultured in Panc media, which includes all 6C/Colon 1B media components plus 100 ng/mL human FGF-10 (Thermo Fisher Scientific, cat. 100-26), 500 nM SB-431542 (Selleckchem, cat. S1067), and gastrin (Tocris, cat. 3006).
[…]
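Also: spheroids exposed to compounds for seven days.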

Q: Which results are given for `CC[C@@]1(O)C(=O)OCc2c1cc1n(c2=O)Cc2cc3c(CN(C)C)c(O)ccc3nc2-1` + CN(C)c1ccc(Nc2c3ccc(NC(=O)CCN4CCCC4)cc3nc3cc(NC(=O)CCN4CCCC4)ccc23)cc1?
A: IC50 (second compound 0.0316 µM): 89.7 nM; IC50 (second compound 0.1 µM): 95.5 nM; IC50 (second compound 0.316 µM): 269 nM; IC50 (second compound 1 µM): 125 nM; IC50 (second compound 3.16 µM): 153 nM; IC50 (second compound 10 µM): 155 nM; viability, T/C (second compound 0.0316 µM, first compound 0.000999 µM): 102%; viability, T/C (second compound 0.0316 µM, first compound 0.00316 µM): 101%; viability, T/C (second compound 0.0316 µM, first compound 0.00999 µM): 101%; viability, T/C (second compound 0.0316 µM, first compound 0.0316 µM): 77.5%; viability, T/C (second compound 0.0316 µM, first compound 0.0999 µM): 47.8%; viability, T/C (second compound 0.0316 µM, first compound 0.316 µM): 42.5%; viability, T/C (second compound 0.1 µM, first compound 0.000999 µM): 99.8%; viability, T/C (second compound 0.1 µM, first compound 0.00316 µM): 96.7%; viability, T/C (second compound 0.1 µM, first compound 0.00999 µM): 103%; viability, T/C (second compound 0.1 µM, first compound 0.0316 µM): 74.4%; viability, T/C (second compound 0.1 µM, first compound 0.0999 µM): 51.8%; viability, T/C (second compound 0.1 µM, first compound 0.316 µM): 38.8%; viability, T/C (second compound 0.316 µM, first compound 0.000999 µM): 96.9%; viability, T/C (second compound 0.316 µM, first compound 0.00316 µM): 99.6%; viability, T/C (second compound 0.316 µM, first compound 0.00999 µM): 89.1%; viability, T/C (second compound 0.316 µM, first compound 0.0316 µM): 89.9%; viability, T/C (second compound 0.316 µM, first compound 0.0999 µM): 55.5%; viability, T/C (second compound 0.316 µM, first compound 0.316 µM): 49.2%; viability, T/C (second compound 1 µM, first compound 0.000999 µM): 99.8%; viability, T/C (second compound 1 µM, first compound 0.00316 µM): 103%; viability, T/C (second compound 1 µM, first compound 0.00999 µM): 96%; viability, T/C (second compound 1 µM, first compound 0.0316 µM): 82.4%; viability, T/C (second compound 1 µM, first compound 0.0999 µM): 52.4%; viability, T/C (second compound 1 µM, first compound 0.316 µM): 39.3%; viability, T/C (second compound 3.16 µM, first compound 0.000999 µM): 102%; viability, T/C (second compound 3.16 µM, first compound 0.00316 µM): 90.7%; viability, T/C (second compound 3.16 µM, first compound 0.00999 µM): 88.5%; viability, T/C (second compound 3.16 µM, first compound 0.0316 µM): 93.1%; viability, T/C (second compound 3.16 µM, first compound 0.0999 µM): 50.8%; viability, T/C (second compound 3.16 µM, first compound 0.316 µM): 48.6%; viability, T/C (second compound 10 µM, first compound 0.000999 µM): 103%; viability, T/C (second compound 10 µM, first compound 0.00316 µM): 103%; viability, T/C (second compound 10 µM, first compound 0.00999 µM): 105%; viability, T/C (second compound 10 µM, first compound 0.0316 µM): 109%; viability, T/C (second compound 10 µM, first compound 0.0999 µM): 57.4%; viability, T/C (second compound 10 µM, first compound 0.316 µM): 38%
